Results reported in patent US10858384B2, “Synthetic molecule constructs” (KODE BIOTECH LIMITED, priority 2004, dated 2020).

Tests used:
group O RBCs = experiment: Diamed agglutination of RBCs transformed at 4° C. with synthetic glycolipids (weak A, B and AB cells); type: cell-based, human; conditions: 0.03 mg/mL, anti-A, time = table row
Method: Transformation of RBCs with synthetic glycolipids Atri-sp-Ad-DOPE (I) and Btri-sp-Ad-DOPE (VI) at 4° C. was then evaluated (Tables 25 to 28). These transformations were directed towards the preparation of cells expressing low levels of A, B or A and B glycotopes (“weak A, B and AB cells”).
For the preparation of weak A and B cells transformation solutions (20 μL, Atri-sp-Ad-DOPE (I) at 0.08, 0.05 and 0.03 mg/mL, and Btri-sp-Ad-DOPE (VI) at 0.6, 0.3, 0.15, 0.08, 0.05 and 0.03 mg/mL) in 1× PBS were mixed with washed, packed group O RBCs (60 μL).
For the preparation of weak AB cells transformation solutions (20 μL, Atrii-sp-Ad-DOPE (I) at 0.07, 0.06 and 0.05 mg/mL, and Btri-sp-Ad-DOPE (VI) at 0.3, and 0.2 mg/mL) in 1× PBS were combined in block titre with washed, packed group O RBCs (60 μL). The combinations were: Atri-sp-Ad-DOPE (I) at 0.07 mg/mL+Btri-sp-Ad-DOPE (VI) at 0.3 mg/mL; Atri-sp-Ad-DOPE (I) at 0.07 mg/mL+Btri-sp-Ad-DOPE (VI) at 0.2 mg/mL; Atri-sp-Ad-DOPE (I) at 0.06 mg/mL+Btri-sp-Ad-DOPE (VI) at 0.3 mg/mL; Atri-sp-Ad-DOPE (I) at 0.06 mg/mL+Btri-sp-Ad-DOPE (VI) at 0.2 mg/mL; Atri-sp-Ad-DOPE (I) at 0.05 mg/mL+Btri-sp-Ad-DOPE (VI) at 0.3 mg/mL; and Atri-sp-Ad-DOPE (I) 0.05+Btri-sp-Ad-DOPE (VI) 0.2 mg/mL.
Cells and transformation solutions were placed in a […] fridge. Pipette mixing was performed at intervals. […]

RBCs = experiment: Insertion efficiency: post-transformation solutions concentrated 20x, Diamed serology; type: cell-based; conditions: post-transformation solution concentrated 20×, from 0.08 mg/mL
Method: In addition, the post-transformation solutions were concentrated 20× and compared in parallel with the transformation solutions of known concentration. Only the post-transformation solutions derived from the 0.08 mg/mL Atri-sp-Ad-DOPE (I) and 0.6 mg/mL Btri-sp-Ad-DOPE (VI) solutions were tested.
Post-transformation solutions (20 μL) were dialysed (pore size 500 Da) against de-ionised water for 2 days. The samples were left to dry in a fumehood for 10 days. At the end of this time they were transferred into a rotavapor flask and set on the rotavapor to rotate under vacuum with no heat overnight. Samples were dried in a water bath at 40° C. and washed over into smaller vessels with chloroform-methanol 2:1 leaving significant amounts of dried cellular material. The chloroform-methanol 2:1 washings were dried down, washed over again into test-tubes with chloroform-methanol 2:1 and dried down. These samples were redissolved in 1 mL of 1× PBS and used for transformation experiments. The cellular material in the bottom of the flasks was washed out with water into another set of tubes.
The post-transformation solutions (from Atri-sp-Ad-DOPE (I) at 0.08 mg/mL and Btri-sp-Ad-DOPE (VI) at 0.6 mg/mL, 20 μL) were added to washed, packed RBCs (60 μL). […]

CCCCCCCC/C=C\CCCCCCCC(=O)OC[C@H](COP(=O)(O)OCCNC(=O)CCCCC(=O)NCCCO[C@@H]1O[C@H](CO)[C@H](O)[C@H](O[C@H]2O[C@H](CO)[C@H](O)[C@H](O)[C@H]2NC(C)=O)[C@H]1O[C@@H]1O[C@@H](C)[C@@H](O)[C@@H](O)[C@@H]1O)OC(=O)CCCCCCC/C=C\CCCCCCCC [Atri-sp-Ad-DOPE (I)]
0: Agglutination score (group O RBCs; unwashed) | Agglutination score (group O RBCs; washed) | Score (Diamed serology) (RBCs)
